According to patent US6586389B1, “Cubilin protein, DNA sequences encoding cubilin and uses thereof” (Administrators of the Tulane Educational Fund, priority 1998, dated 2003):

What was measured:
Rabbit megalin = assay: Megalin-cubilin interaction analysis by surface plasmon resonance; assay type: binding
Procedure: Rabbit megalin was immobilized to a sensor chip and the on rates and off rates for the binding of cubilin was recorded by flow of 20 nM purified cubilin along the chip surface. For control, cubilin was subjected to a blank chip. […] The binding curves in the presence of 10 mM EDTA or after prebinding of RAP to megalin are also shown. […] By fitting the binding data to a one-binding-site model a Kd of 7 nM was measured.
Surface plasmon resonance measurements were performed on a BIAcore 2000 instrument (Pharmacia, Sweden). BIAcore sensor chips (type CM5, Pharmacia) were activated with 1:1 mixture of 0.2 M N-ethyl-N′-(3-dimethylaminopropyl) carbodiimide and 0.05 M N-hydroxysuccimine in water. Rabbit megalin was immobilized as described (Moestrup et al., 1996) at a concentration of 40 μg/ml in 10 mM sodium acetate, pH 4.5 and the remaining binding sites were blocked with 1 M ethanolamine, pH 8.5. The flow buffer was 10 mM Hepes, 150 mM NaCl and […], 1 mM EDTA, pH 7.4. The binding data were analyzed using the BIAevaluation program.
Bound radiolabel was released from the column by EDTA. Surface plasmon analysis (FIG. 10A) confirmed this binding. […] Megalin-bound cubilin was still capable of binding IF-B12 as shown by subjecting the megalin-chip to flow with IF-B12 after the binding of cubilin (FIG. 10B). Thus, the response after adding IF-B12 represents the formation of a megalin-cubilin-IF-B12 complex.

[1] = target: megalin in native membranes (rat renal brush-border membrane vesicles; rat yolk sac cells) (rat) (UniProt P98158); assay: cell-based or functional assay
rabbit megalin (rabbit) [2] = assay: SPR, RAP prebound to immobilized rabbit megalin; competitor cubilin in flow
Cubilin [3] = target: T1, Cubilin (Rattus norvegicus, UniProt O70244); assay: Ligands for cubilin: competition with known ligands; assay type: binding; details: RAP vs IF-B12; haptoglobin vs light chains; gentamicin vs light chain
[4] = system: yolk sac epithelial cells (BN/MSV); assay: Endocytosis of FITC-light chain by yolk sac cells; assay type: cell-based, rat; details: 30 min, FIG. 14A; antibody at 1:1,000 dilution
Procedure: The yolk sac epithelial cell line (BN/MSV) was derived from yolk sac teratocarcinoma induced by fetectomy and placental injection of mouse sarcoma virus (Sahali et al., 1988). When grown under conventional conditions in modified Eagle's medium, supplemented with 2.5 mM L-glutamine, 10% fetal calf serum, and an antibiotic cocktail (penicillin, streptomycin, and Fungizone), the cells form a domed monolayer and express abundant cubilin (Sahali et al., 1988).
Internalization experiments were conducted by exposing confluent yolk sac cells in 24-cell plates to […] FITC-conjugated light chain. These cells were selected for endocytosis experiments because cubilin expression is 100-fold greater than cultured proximal tubule cells (Sahali et al., 1988). […] This concentration is selected because it is 10-fold higher than the half-maximal inhibitory concentration of the antibody determined from the brush border binding inhibition experiments. […] Cells are then trypsininzed, fixed in 1% formaldehyde, and suspended in PBS, and FITC incorporated into each cell is read in a Becton-Dickinson flow cytometer as described previously. Endocytosis curves are generated by plotting fluorescence units corrected for background against time. […]

[5] = system: rat renal cortical intermicrovillar clefts; assay: Endosomal fusion reconstituted in vitro (energy transfer); assay type: biochemical; parameters: dose or concentration left out as unconfirmed; details: membranes loaded with λ-light chains via homogenization buffer; n=8
Text: The λ_light chains were loaded into rat renal cortical intermicrovillar cleft at […] by addition to the homogenization buffer. Fusion reconstituted in vitro in light chain-loaded membranes was inhibited compared with albumin-loaded control membranes. Values are mean±standard error for n=8, p<0.05 by unpaired t-test.
Fusion of these light chain loaded membranes was compared to control membranes loaded with the same concentration of albumin. All fluorescence measurements were corrected per mg of protein, and fusion reconstituted in vitro in cuvettes (Hammond et al., 1994). Data are expressed as mean +standard error of the mean throughout the application. Statistical analysis was performed by analysis of variance and Bonferroni or Scheffe's post hoc comparison.
To test whether myeloma light chains are functionally important in membrane trafficking and fusion events, intermicrovillar clefts were loaded with light chains by adding it to the homogenization buffer (Hammond et al., 1994). Fusion reconstituted in vitro in cuvettes was assayed by energy transfer, and results were normalized per milligram protein (Hammond et al., 1994; Jo et al., 1995).

Cubilin [6] = target: T1, Cubilin; assay: Surface plasmon resonance analysis of light chain/cubilin interaction; assay type: binding; parameters: from tissue; host or cells: rat renal cortex (intermicrovillar clefts); details: cubilin 100 nM preincubated with κ-light chains (10 or 490 μM) or λ-light chains (10 μM)
Procedure: A sample of cubilin (100 nM) was incubated with κ-light chains (10 or 490 μM), or […] prior to injecting the sample over the κ-light chain surface. The binding of cubilin to the immobilized surfaces was reduced in the presence of κ- or λ-light chains in a dose-response fashion. Data are representative of experiments with 4 light chains on 3 chips. […] LC, light chains: RU, response units.
Intermicrovillar clefts prepared from renal cortices were biotinylated on the cytosolic facade using NHS-biotin (Winearls, 1995). Cubilin and the associated proteins were purified by immunoaffinity chromatography MAb 75 was coupled to CNBr-activated Sepharose 4B (Pharmacia, Saint Quentin en Yvelines, France) as previously described (Sahali et al., 1988; 1993). Protease inhibitors were added at all steps.
κ- or λ-light chains were immobilized via free amine groups to the dextran matrix of CM5 sensor chips activated by a 1/1 mixture of NHS and EDC. Unreacted sites were blocked with 1M ethanolamine, pH 8.5, (Jonsson et al., 1991; Sanders et al., 1988). The immobilization was conducted at 25° C. using 10 mM HEPES, 2 mM CaCl2, 150 mM NaCl, 0.005% NP-40, pH 7.4 as the flow buffer. Then 10 mM acetate pH 4.8 was used for electrostatic pre-concentration of the protein. […]

rabbit megalin (rabbit) [7] = assay: SPR (BIAcore 2000), rabbit megalin immobilized, 20 nM purified cubilin in flow, blank chip subtracted, one-binding-site fit
[8] = system: renal brush border membrane; details: cited from earlier work
[9] = system: rat renal brush border membrane vesicles; assay: Gentamicin competition with fluorescein-light chain binding to brush border membrane vesicles (flow cytometry); details: control 39.6±4.2, n=4
Procedure: Given the abundance of megalin on the renal brush border membrane, if megalin is a light chain receptor this would predict that small polybasic drugs, such as gentamicin, which are known ligands for megalin, should compete for light chain binding to renal brush border membrane vesicles. To test this, rat renal brush border membrane vesicles were incubated in fluorescein-conjugated light chains with various concentrations of gentamicin. After washing, fluorescein-light chain binding to the membranes was analyzed by flow cytometry (FIG. 16). Estimate of half maximal binding concentration of gentamicin between 60 and 70 μM was placed in the middle of the curve. Gentamicin competes with fluorescent light chain binding to renal brush border membranes in a dose-dependent manner (control FITC-light chain binding 39.6±4.2 arbitrary fluorescence units, 10 μM gentamicin 45.1±3.1, 100 μM gentamicin 8.9±33.8*, 1000 μM gentamicin 6.3±1.9*, n=4, *p<0.05).

T1 sequence (O70244 33-3623): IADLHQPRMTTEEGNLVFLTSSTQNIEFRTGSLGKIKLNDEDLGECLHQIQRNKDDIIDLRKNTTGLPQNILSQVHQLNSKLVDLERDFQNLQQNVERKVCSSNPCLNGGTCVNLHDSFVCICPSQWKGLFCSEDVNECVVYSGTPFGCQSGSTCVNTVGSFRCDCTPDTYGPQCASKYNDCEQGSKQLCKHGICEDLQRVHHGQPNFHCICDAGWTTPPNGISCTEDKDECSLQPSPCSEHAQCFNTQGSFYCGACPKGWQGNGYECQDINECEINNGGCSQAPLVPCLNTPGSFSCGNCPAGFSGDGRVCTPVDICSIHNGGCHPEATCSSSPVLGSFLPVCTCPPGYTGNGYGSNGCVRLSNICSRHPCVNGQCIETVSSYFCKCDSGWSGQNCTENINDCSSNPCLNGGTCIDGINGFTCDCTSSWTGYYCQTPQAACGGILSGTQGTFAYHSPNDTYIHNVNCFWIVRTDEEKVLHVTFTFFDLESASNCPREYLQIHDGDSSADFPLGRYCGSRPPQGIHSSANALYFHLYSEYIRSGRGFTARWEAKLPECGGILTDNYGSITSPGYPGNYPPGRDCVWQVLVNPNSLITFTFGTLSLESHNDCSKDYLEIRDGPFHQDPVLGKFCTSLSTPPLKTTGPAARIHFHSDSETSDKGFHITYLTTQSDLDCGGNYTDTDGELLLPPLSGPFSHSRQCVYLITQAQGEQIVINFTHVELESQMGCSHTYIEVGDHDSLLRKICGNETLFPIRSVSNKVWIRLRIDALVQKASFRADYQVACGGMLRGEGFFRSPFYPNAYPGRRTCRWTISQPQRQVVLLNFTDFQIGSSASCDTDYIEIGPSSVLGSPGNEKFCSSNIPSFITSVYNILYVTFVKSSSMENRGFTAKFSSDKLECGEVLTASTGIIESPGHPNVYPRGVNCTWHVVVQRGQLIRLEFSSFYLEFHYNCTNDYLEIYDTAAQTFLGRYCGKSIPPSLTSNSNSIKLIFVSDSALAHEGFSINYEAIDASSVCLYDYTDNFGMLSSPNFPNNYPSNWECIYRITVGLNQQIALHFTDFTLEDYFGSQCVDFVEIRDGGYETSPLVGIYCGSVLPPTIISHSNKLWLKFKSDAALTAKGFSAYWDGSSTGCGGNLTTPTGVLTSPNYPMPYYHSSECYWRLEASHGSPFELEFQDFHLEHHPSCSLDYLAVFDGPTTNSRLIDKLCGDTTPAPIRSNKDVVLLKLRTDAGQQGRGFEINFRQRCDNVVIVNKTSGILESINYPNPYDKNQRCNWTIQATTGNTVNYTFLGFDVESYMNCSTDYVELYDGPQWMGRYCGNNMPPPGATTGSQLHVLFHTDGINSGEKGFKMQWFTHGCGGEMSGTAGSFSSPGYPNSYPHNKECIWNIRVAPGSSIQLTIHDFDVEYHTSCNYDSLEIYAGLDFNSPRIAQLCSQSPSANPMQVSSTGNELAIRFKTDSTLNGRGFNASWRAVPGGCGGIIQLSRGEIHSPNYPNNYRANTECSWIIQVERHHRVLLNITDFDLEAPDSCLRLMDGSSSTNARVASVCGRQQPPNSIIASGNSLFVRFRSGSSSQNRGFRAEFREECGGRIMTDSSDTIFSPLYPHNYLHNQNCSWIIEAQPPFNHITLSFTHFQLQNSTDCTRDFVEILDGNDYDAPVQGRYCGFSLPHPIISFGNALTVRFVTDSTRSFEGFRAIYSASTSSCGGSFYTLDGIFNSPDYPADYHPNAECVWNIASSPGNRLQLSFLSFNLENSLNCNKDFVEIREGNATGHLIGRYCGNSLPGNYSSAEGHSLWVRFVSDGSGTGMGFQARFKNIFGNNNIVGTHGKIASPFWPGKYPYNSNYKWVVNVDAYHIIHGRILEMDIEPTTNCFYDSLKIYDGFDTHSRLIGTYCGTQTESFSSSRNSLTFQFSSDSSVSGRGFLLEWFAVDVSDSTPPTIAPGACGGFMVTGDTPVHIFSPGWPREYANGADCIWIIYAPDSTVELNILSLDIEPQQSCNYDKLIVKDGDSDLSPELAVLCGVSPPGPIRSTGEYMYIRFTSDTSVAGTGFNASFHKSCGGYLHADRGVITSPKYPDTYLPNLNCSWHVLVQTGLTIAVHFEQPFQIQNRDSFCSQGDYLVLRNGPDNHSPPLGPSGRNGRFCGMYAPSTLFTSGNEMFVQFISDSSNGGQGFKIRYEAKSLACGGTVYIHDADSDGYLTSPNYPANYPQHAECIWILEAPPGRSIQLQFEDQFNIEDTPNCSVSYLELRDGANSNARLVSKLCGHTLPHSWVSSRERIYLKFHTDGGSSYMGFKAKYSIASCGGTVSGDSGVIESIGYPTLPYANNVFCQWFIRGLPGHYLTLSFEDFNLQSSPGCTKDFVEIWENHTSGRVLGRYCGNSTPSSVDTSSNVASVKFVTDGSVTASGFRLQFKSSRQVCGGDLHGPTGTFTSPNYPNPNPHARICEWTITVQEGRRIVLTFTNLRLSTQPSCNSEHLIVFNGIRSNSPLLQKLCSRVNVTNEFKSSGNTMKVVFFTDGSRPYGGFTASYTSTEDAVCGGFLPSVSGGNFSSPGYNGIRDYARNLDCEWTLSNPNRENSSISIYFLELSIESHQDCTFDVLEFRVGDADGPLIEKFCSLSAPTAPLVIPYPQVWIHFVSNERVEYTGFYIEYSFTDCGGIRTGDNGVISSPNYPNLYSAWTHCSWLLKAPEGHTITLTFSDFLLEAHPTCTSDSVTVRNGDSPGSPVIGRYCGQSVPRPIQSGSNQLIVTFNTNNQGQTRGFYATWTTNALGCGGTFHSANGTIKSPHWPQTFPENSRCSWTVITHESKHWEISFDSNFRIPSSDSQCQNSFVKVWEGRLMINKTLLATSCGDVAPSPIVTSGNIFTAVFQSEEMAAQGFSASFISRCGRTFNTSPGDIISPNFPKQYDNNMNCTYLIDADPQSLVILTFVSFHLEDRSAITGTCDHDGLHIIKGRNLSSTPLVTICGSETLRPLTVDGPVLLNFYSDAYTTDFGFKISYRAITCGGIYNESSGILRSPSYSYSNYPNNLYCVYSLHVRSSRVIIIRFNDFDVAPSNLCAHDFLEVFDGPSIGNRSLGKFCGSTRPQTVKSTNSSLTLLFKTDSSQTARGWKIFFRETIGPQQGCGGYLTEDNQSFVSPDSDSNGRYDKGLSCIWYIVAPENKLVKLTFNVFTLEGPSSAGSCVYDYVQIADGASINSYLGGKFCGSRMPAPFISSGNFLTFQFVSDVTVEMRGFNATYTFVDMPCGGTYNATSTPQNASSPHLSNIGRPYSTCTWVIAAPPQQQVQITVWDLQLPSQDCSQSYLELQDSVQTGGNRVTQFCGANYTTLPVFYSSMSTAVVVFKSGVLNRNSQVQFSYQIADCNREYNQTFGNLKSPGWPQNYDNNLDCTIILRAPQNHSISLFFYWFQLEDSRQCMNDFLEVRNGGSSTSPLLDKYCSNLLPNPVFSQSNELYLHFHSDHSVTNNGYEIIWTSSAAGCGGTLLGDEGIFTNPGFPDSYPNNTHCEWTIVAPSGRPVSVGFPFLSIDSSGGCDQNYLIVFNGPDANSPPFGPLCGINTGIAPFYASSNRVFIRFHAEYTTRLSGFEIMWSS
RAP (Receptor related protein) (ligand), sequence (P30533 35-357): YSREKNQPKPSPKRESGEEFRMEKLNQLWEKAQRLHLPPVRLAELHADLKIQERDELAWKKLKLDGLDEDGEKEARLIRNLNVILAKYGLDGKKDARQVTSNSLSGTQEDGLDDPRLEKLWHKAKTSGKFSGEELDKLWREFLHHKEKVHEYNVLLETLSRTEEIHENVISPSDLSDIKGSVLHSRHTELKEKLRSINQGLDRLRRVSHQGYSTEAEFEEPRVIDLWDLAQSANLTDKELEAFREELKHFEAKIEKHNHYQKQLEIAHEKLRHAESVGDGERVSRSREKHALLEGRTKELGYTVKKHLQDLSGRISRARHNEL
cubilin (purified; species of origin not stated where used) (receptor), sequence (O70244 33-3623): as the sequence (O70244 33-3623) above

Intrinsic factor vitamin B12: intrinsic factor-vitamin B12 complexes
Binding to megalin (control experiments) (Rabbit megalin; megalin chip): no binding

RAP (Receptor related protein) (ligand)
reduction of endocytosis of 125I-IF-B12 in cultured yolk sac cell [1]: 10 to 15% | reduction of cubilin binding to megalin (rabbit megalin (rabbit) [2]): 75%

RAP: Receptor related protein; binds megalin and cubilin
Reduction of binding of cubilin to megalin (Rabbit megalin; RAP prebound to megalin): 75% | Competition between ligands for binding to cubilin (Cubilin [3]): does not inhibit

albumin: bovine serum albumin used as nonspecific protein control
Effect on FITC-light chain endocytosis [4]: no effect | Endosomal fusion [5]: 1584±314 arbitrary fluorescence units/mg protein | Effect of free protein on binding of cubilin to immobilized light chains (competition) (Cubilin [6]): neither competed with light chains, nor bound to cubilin

cubilin (purified; species of origin not stated where used) (receptor)
Kd (rabbit megalin (rabbit) [7]): 7 nM

cubilin: 460 kDa epithelial glycoprotein receptor for intrinsic factor-vitamin B12 complexes; rat sequence SEQ ID No. 2
Kd (Rabbit megalin; binding data fitted to a one-binding-site model, 20 nM purified cubilin over immobilized rabbit megalin): 7 nM

cytochrome c: low molecular weight protein competing with light chain
Competition with light chain for brush border membrane binding [8]: competing

gentamicin
FITC-light chain binding ([9]; 10 μM gentamicin): 45.1±3.1 arbitrary fluorescence units | FITC-light chain binding ([9]; 100 μM gentamicin): 8.9±33.8 arbitrary fluorescence units | FITC-light chain binding ([9]; 1000 μM gentamicin): 6.3±1.9 arbitrary fluorescence units | Competition between ligands for binding to cubilin (Cubilin [3]): directly interferes

haptoglobin: protein ligand for cubilin
Competition between ligands for binding to cubilin (Cubilin [3]): do not compete

lysozyme
Competition with light chain for brush border membrane binding [8]: competing

myoglobin
Competition with light chain for brush border membrane binding [8]: competing
